Common to all, as to test: NCI tumour cell line growth inhibition, 48 h
The test system of test [1] is MALME-3M melanoma.
For test [2], the system named is ACHN renal.
The subject of test [3] is HT29 colon.
Test [4] concerns SNB-19 CNS.
Test [5] deals with MDA-MB-435.
Test [6] concerns HOP-62 NSCLC.
The test system of test [7] is MCF7 breast.
Test [8] relates to TK-10 renal.
In test [9] the test system is U251 CNS.
Test [10] has as its system RPMI-8226 leukemia.
Test [11] has as its system SK-OV-3 ovarian.
Test [12] has as its system SK-MEL-5 melanoma.
Test [13] relates to RXF 393 renal.
Test [14] concerns K-562 leukemia.
The subject of test [15] is OVCAR-4 ovarian.
Test [16] has as its system KM12 colon.
Test [17] has as its system HL-60(TB) leukemia.

Structures are written as SMILES. Where “and” joins values, the source holds several entries; their conditions need not be identical. Equal values may be shown once.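 Cells were grown in 96-well plates and exposed to each compound for 48 hours at five concentrations; endpoints were interpolated linearly between bracketing concentrations, or set to the highest concentration if not reached. Abbreviation: GI50, concentration required for 50% inhibition of growth. At the TGI there is no net growth.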 Some results are limits rather than exact numbers.

`CC(=O)N1N=C(c2ccccc2Nc2ccccc2C2=NN(C(C)=O)C(c3ccccc3)O2)OC1c1ccccc1` (centres undefined): the TGI in [1], in test [2], in test [3], in [4], in [5] and in test [6] was over 100 µM in each case. Further, the TGI in [7], in test [8], in test [9], in test [10], in [11] and in [12] was over 100 µM each time. Also, the TGI in test [13], in test [14] and in test [15] was over 100 µM in each case.

As to `COc1ccc(N2C(=O)C(C#N)=C(SC)C(C#N)C2=O)cc1` (centres undefined), the TGI in [1], in [2], in [3], in test [4], in [5] and in [6] was over 100 µM throughout. Moreover, the TGI in test [7], in test [8], in test [16], in test [9], in test [11] and in test [12] was over 100 µM each time. The TGI in test [13], in [14] and in [15] was over 100 µM in each case.

On to `Nc1nc(NNc2ccccc2F)cc(=O)[nH]1`, for which the TGI in [1], in test [2], in test [3], in test [4], in test [17] and in test [5] was over 100 µM throughout. For the same compound, the TGI in test [6], in test [7], in [8], in [16], in [9] and in test [10] was over 100 µM in each case. Further, the TGI in test [12], in [14] and in test [15] was over 100 µM in each case.

As to `CC12OC3(C(O)C1O)C(C(=O)O[C@H]3CO[Si](C)(C)C(C)(C)C)C2S(=O)(=O)c1ccccc1` (some centres undefined), the TGI was over 100 µM in [2]; over 100 µM in test [3]; over 100 µM in test [4]; 67.9 µM in [17]; over 100 µM in [5]; over 100 µM in [6]. Further, the TGI in test [7] is over 100 µM; in test [8], over 100 µM; in test [16], over 100 µM; in [9], over 100 µM; in test [10] it was 70.8 µM; in [11], over 100 µM. Besides, the TGI in test [14] was over 100 µM; in test [15], 95 µM.

Take `O=C1C=Cc2c1csc2Br`: the TGI in test [1] is over 100 µM; in test [2], 86.5 µM; in [3], over 100 µM; in test [4] it was over 100 µM; in [5] it was over 100 µM; in [6] it was over 100 µM. Besides, the TGI was 95.9 µM in test [7]; over 100 µM in [8]; over 100 µM in test [16]; over 100 µM in test [9]; over 100 µM in [11]; over 100 µM in test [12]. Also, the TGI in test [13] was over 100 µM; in test [14], 97.7 µM; in [15], over 100 µM.

As to `CC(=O)O[C@@H]1[C@@H](C)[C@]2(CC(c3ccoc3)OC2O)C2CCC3O[C@]3(C)[C@]2(C)[C@@H]1OC(C)=O` (some centres undefined), the TGI in test [2] was over 100 µM; in [3], over 100 µM; in test [4] it was over 100 µM; in test [17], 48.7 µM; in test [5], over 100 µM; in test [7] it was over 100 µM. The TGI in test [8] was over 100 µM; in [16], 86.8 µM; in test [9], over 100 µM; in test [10] it was 60.7 µM; in test [11], over 100 µM; in test [12], 64.3 µM. Also, the TGI in test [13] and in test [15] was over 100 µM each time.

With `O=CNNC(=O)CSc1nc2ccc(I)cc2c(=O)n1Cc1ccccc1`, the TGI in [2] was over 100 µM; in test [3], over 100 µM; in test [4], over 100 µM; in test [17], 89.7 µM; in test [5], over 100 µM; in test [6] it was over 100 µM. For the same compound, the TGI in test [7] was over 100 µM; in test [8], over 100 µM; in test [16] it was over 100 µM; in test [9], over 100 µM; in test [10] it was 23.8 µM; in [11], over 100 µM. The TGI in test [12] was 38.2 µM; in test [13], 81.4 µM; in test [14], over 100 µM; in test [15] it was over 100 µM.

`COc1cc(CC(C)N[C@@H](C)c2ccccc2)cc(OC)c1` (some centres undefined): the TGI is 21.1 µM and > 100 µM in [2]; 13.1 µM and > 100 µM in [3]; 21.3 µM and > 100 µM in [4]; 10.7 µM and > 100 µM in [17]; 19.6 µM and > 100 µM in [5]; 24.2 µM and > 100 µM in test [6]. The TGI was 20.1 µM and > 100 µM in [7]; 24.7 µM and > 100 µM in [8]; over 100 µM in test [16]; 19.8 µM and > 100 µM in test [9]; 11.6 µM and > 100 µM in [10]; 25.5 µM and > 100 µM in test [11]. Further, the TGI in test [13] is over 100 µM; in [15] it was 22.4 µM and > 100 µM. Also, the GI50 in test [6] was 11.2 µM and > 100 µM; in test [8], 12.2 µM and 53.8 µM; in test [11] it was 12.9 µM and > 100 µM.

For `CN(C)C=NCc1ccc2c(c1)OCO2`, the TGI in test [1], in test [2], in test [3], in test [4], in [5] and in [6] was over 100 µM in each case. The TGI in test [7], in test [8], in test [16], in test [9], in [10] and in [11] was over 100 µM in each case. The TGI in test [12], in test [13], in [14] and in test [15] was over 100 µM each time.

Consider `Cc1cc(CN(Cc2ccccc2)Cc2nc3ccccc3[nH]2)c(O)c(CN(Cc2nc3ccccc3[nH]2)Cc2nc3ccccc3[nH]2)c1`, for which the TGI in [1] was over 93.2 µM; in test [3], over 69.6 µM; in test [4], over 25.1 µM; in [5] it was 36.1 µM; in [6] it was 35.3 µM; in test [7], 8.87 µM. Further, the TGI in test [8] is over 67.9 µM; in test [16] it was 30.5 µM; in [9], over 100 µM; in test [10], 38.4 µM; in [11], over 52.3 µM; in test [12] it was 19.5 µM. Moreover, the TGI was 64.1 µM in test [13], over 26.3 µM in [14] and 98.7 µM in test [15].

As for `COc1ccc(C(=O)/C=C/c2ccc(OCC#N)cc2)cc1OC`, the TGI in test [1] came out at 38.8 µM; in [2], 76.1 µM; in [3] it was 74.7 µM; in test [4], 29.9 µM; in test [5], 44.7 µM; in test [6], 36.4 µM. Further, the TGI is 16 µM in test [7]; 70 µM in test [8]; 18.5 µM in test [16]; 29.6 µM in test [9]; over 100 µM in test [11]; 32.2 µM in test [12]. Besides, the TGI in test [13] was 33.8 µM; in test [14] it was over 100 µM; in test [15] it was over 100 µM.

Consider `Cc1ccc(N(C)S(=O)(=O)c2ccccc2)cc1`, for which the TGI in test [1], in [2], in test [3], in [4], in test [5] and in test [6] was over 100 µM in each case. For the same compound, the TGI in [7], in [8], in [16], in [9], in test [10] and in test [11] was over 100 µM throughout. The TGI in [12], in test [13], in test [14] and in test [15] was over 100 µM each time.

For `CC1(C)CC(=O)C(CC2C(=O)c3ccccc3C2=O)C(=O)C1C(=O)C(=O)Nc1cccc2ccc(O)cc12` (centres undefined), the TGI in [1], in [2], in test [3], in test [4], in test [17] and in [5] was over 100 µM in each case. Further, the TGI in test [7], in test [8], in test [16], in [9], in test [10] and in test [11] was over 100 µM throughout. The TGI in [12], in test [14] and in [15] was over 100 µM in each case.

For the compound `O=[N+]([O-])c1ccc(OP(=O)(O)OCC2OC(CP(=O)(O)O)C(O)C2O)cc1` (centres undefined), the TGI in [2], in [3], in [4], in test [17], in test [5] and in test [6] was over 100 µM throughout. In addition, the TGI in [7], in test [8], in test [16], in [9], in test [12] and in test [13] was over 100 µM in each case. In addition, the TGI in [14] and in test [15] was over 100 µM each time.

Regarding `CCNC(=S)Nc1c(C#N)c2n(c1C(=O)OCC)CCCCC2`, the TGI in test [2], in [3], in test [4], in test [17], in test [5] and in [6] was over 100 µM throughout. Besides, the TGI in test [7], in [8], in test [16], in test [9], in test [10] and in test [11] was over 100 µM each time. Further, the TGI in test [12], in test [13], in test [14] and in test [15] was over 100 µM in each case.

As for `Clc1cc2nnn(C3CCCCO3)c2cc1Cl` (centres undefined), the TGI in test [1], in [2], in test [3], in [4], in test [5] and in [6] was over 100 µM each time. For the same compound, the TGI in [7], in [8], in [16], in test [9], in test [10] and in test [11] was over 100 µM in each case. In addition, the TGI in test [12], in test [13], in test [14] and in test [15] was over 100 µM throughout.

Regarding `Cc1ccc(O)c(-c2cc(-c3ccccc3)nc(/N=C\c3ccccc3)n2)c1`, the TGI in test [1] is over 100 µM; in test [2] it was 29.8 µM; in test [3] it was over 100 µM; in [4], over 100 µM; in test [17] it was over 100 µM; in test [5] it was over 100 µM. The TGI in [6] is 58.8 µM; in test [7], over 100 µM; in [8], over 100 µM; in test [16], over 100 µM; in [9], over 100 µM; in [12] it was over 100 µM. The TGI in [14] and in test [15] was over 100 µM each time.

Consider `CNC(=O)C1CCC(=O)N1CN(C(C)=O)c1ccccc1` (centres undefined), for which the TGI in test [1], in test [2], in test [3], in [4], in [5] and in [6] was over 100 µM each time. In addition, the TGI in test [7], in test [8], in test [16], in test [9], in test [10] and in test [11] was over 100 µM throughout. In addition, the TGI in test [12], in test [13], in test [14] and in [15] was over 100 µM each time.

Values taken from PubChem BioAssay (NCI).
